Experimental data published in US20230135635A1, “INHIBITORS OF ULK1/2 AND METHODS OF USING SAME” (SALK INSTITUTE FOR BIOLOGICAL STUDIES, priority 2020, published 2023).

Target: T1, recombinant human ULK1 protein (1-649) (Homo sapiens, UniProt O75385)
T1 construct: recombinant human ULK1 protein (1-649, SignalChem #U01-11G); purchased SignalChem U01-11G
T1 sequence (O75385 1-649): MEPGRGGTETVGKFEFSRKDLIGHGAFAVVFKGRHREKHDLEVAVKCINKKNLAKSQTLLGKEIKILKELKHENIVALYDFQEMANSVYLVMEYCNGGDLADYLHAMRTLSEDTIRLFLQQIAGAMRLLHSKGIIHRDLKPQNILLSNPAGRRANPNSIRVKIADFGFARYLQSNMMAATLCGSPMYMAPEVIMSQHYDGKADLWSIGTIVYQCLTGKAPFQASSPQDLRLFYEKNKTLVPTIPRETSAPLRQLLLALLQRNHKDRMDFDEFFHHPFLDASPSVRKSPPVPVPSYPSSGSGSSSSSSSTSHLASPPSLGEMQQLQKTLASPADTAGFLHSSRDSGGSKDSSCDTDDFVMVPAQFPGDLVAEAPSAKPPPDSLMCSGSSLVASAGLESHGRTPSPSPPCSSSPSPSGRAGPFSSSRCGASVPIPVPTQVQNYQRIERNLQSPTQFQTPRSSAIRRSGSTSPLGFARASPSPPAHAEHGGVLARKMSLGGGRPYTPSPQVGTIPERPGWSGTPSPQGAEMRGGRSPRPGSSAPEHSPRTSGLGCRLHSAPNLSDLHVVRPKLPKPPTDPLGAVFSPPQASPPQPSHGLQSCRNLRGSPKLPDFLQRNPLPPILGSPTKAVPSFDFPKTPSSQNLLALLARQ
Experiment: ULK1 inhibition assay (ADP Glo)
Format: biochemical
Details: Table 1; 25 uM ATP, MBP substrate, one hour
Protocol: Illustrative compounds of Formula I and related analogs are shown in Table 1 (along with their respective IC50 values for ULK1 inhibition assays). For ADP Glo assay, IC50s are represented nM, with A representing IC50<1 nM, B representing 10 nM>IC50>1 nM, and C representing IC50>10 nM. NT indicates the compound was not tested. ULK1 inhibition assays were performed in a 5 uL reaction volume containing 2 ug/mL recombinant human ULK1 protein (1-649, SignalChem #U01-11G) and 80 ug/mL myelin basic protein (MBP, Sigma-Aldrich #M1891) in the presence of 25 uM ATP (Sigma-Aldrich A7699). ULK 1 inhibition was assessed after one hour. Compounds were tested in triplicate in a 16-dose IC50 mode with 3-fold serial dilution and a starting dose of 30 uM. Staurosporine, a non-selective protein kinase inhibitor, was used in the assay as a positive control.
According to another embodiment, the present disclosure provides methods of producing the above-defined compounds. The compounds may be synthesized using any suitable techniques. Advantageously, these compounds are conveniently synthesized from readily available starting materials. Synthetic chemistry transformations and methodologies useful in synthesizing the compounds described herein are known in the art and include, for example, those described in R. Larock, Comprehensive Organic Transformations (1989); T. W. Greene and P. G. M. Wuts, Protective Groups in Organic Synthesis, 2d. Ed. (1991); L. Fieser and M. Fieser, Fieser and Fieser's Reagents for Organic Synthesis (1994); and L. Paquette, ed., Encyclopedia of Reagents for Organic Synthesis (1995).). In general, synthesis and measurements of ULK1 inhibitory activity of the compounds described herein was performed using method analogous to those previously described in PCT International Application No. PCT/US2015/046777 which is hereby incorporated by reference in its entirety.

IC50, 1 to 10 nM:
FC(F)(F)c1cnc(Nc2ccc3c(c2)CN(Cc2c[nH]cn2)CC3)nc1NC1CC1 [Compound A105]
O=C(C1CCN1)N1CCc2cc(Nc3ncc(C(F)(F)F)c(NC4CC4)n3)ccc2C1 (centres unmarked) [Compound A90]
FC(F)(F)c1cnc(Nc2ccc3c(c2)CN(Cc2cc[nH]c2)CC3)nc1NC1CC1 [Compound A94]
O=S(=O)(C1CC1)N1CCc2cc(Nc3ncc(C(F)(F)F)c(NC4CC4)n3)ccc2C1 [Compound A116]

IC50, > 10 nM:
O=C(NCC(F)(F)F)c1cnc(Nc2ccc3c(c2)CCNC3)nc1NC1CC1 [Compound A38]
CNC(=O)c1ccccc1Nc1nc(Nc2ccc3c(c2)CN(C(=O)CN)CC3)ncc1Br [Compound A152, 2-{2-[2-(2-Amino-acetyl)-1,2,3,4-tetrahydro-isoquinolin-7-ylamino]-5-bromo-pyrimidin-4-ylamino}-N-methyl-benzamide]
CNC(=O)c1ccccc1Nc1nc(Nc2ccc3c(c2)CCN(C(=O)N2CCN(C)CC2)C3)ncc1Br [Compound A128, 2-{5-Bromo-2-[2-(4-methyl-piperazine-1-carbonyl)-1,2,3,4-tetrahydro-isoquinolin-6-ylamino]-pyrimidin-4-ylamino}-N-methyl-benzamide]
CNC(=O)c1ccccc1Nc1nc(Nc2ccc3c(c2)CN(Cc2ccc(OC)cc2)CC3)ncc1Br [Compound A158, 2-{5-Bromo-2-[2-(4-methoxy-benzyl)-1,2,3,4-tetrahydro-isoquinolin-7-ylamino]-pyrimidin-4-ylamino}-N-methyl-benzamide]
CNC(=O)c1ccccc1Nc1nc(Nc2ccc3c(c2)CN(C(=O)[C@@H](N)CO)CC3)ncc1Br (racemic) [Compound A154, 2-{2-[2-(2-Amino-3-hydroxy-propionyl)-1,2,3,4-tetrahydro-isoquinolin-7-ylamino]-5-bromo-pyrimidin-4-ylamino}-N-methyl-benzamide]
CNC(=O)c1ccccc1Nc1nc(Nc2ccc3c(c2)CCN(C)C3)ncc1Br [Compound A135, 2-[5-Bromo-2-(2-methyl-1,2,3,4-tetrahydro-isoquinolin-6-ylamino)-pyrimidin-4-ylamino]-N-methyl-benzamide]
CNC(=O)c1ccccc1Nc1nc(Nc2ccc3c(c2)CCN(Cc2cccnc2)C3)ncc1Br [Compound A130, 2-[5-Bromo-2-(2-pyridin-3-ylmethyl-1,2,3,4-tetrahydro-isoquinolin-6-ylamino)-pyrimidin-4-ylamino]-N-methyl-benzamide]

IC50, < 1 nM:
FC(F)(F)c1cnc(Nc2ccc3c(c2)CN(Cc2ccncn2)CC3)nc1NC1CC1 [Compound A109]
CN1CCC(N2CCc3cc(Nc4ncc(C(F)(F)F)c(NC5CC5)n4)ccc3C2)C1 (centres unmarked) [Compound A114]
FC(F)(F)c1cnc(Nc2ccc3c(c2)CN(CCS)CC3)nc1NC1CC1 [Compound A78]
FC(F)(F)c1cnc(Nc2ccc3c(c2)CCN(Cc2ccco2)C3)nc1NC1CC1 [Compound A46]
CN1CCc2cc(Nc3ncc(C(N)=O)c(NC4CC4)n3)ccc2C1 [Compound A64]
NCCC(=O)N1CCc2cc(Nc3ncc(C(F)(F)F)c(NC4CC4)n3)ccc2C1 [Compound A31]
CC(=O)CCN1CCc2cc(Nc3ncc(C(F)(F)F)c(NC4CC4)n3)ccc2C1 [Compound A56]
Cn1nccc1CN1CCc2cc(Nc3ncc(C(F)(F)F)c(NC4CC4)n3)ccc2C1 [Compound A63]
FC(F)(F)c1cnc(Nc2ccc3c(c2)CCN(Cc2ccccc2)C3)nc1NC1CC1 [Compound A8]

Same assay, conditions: Table 2

IC50, 100 to 1000 nM:
COc1cc(Nc2ncc(Br)c(Oc3ccccc3C(=O)NCC(F)(F)F)n2)cc(OC)c1OC [Compound B6]
COC(=O)c1ccccc1Oc1nc(Nc2ccc(N)cc2)ncc1Br [Compound B37]

IC50, > 1000 nM:
COC(=O)c1ccccc1Oc1nc(Nc2ccc(OC)cc2)ncc1Br [Compound B19]
COc1cc(Nc2ncc(Br)c(Oc3ccccc3C(=O)NCCC#N)n2)cc(OC)c1OC [Compound B10]
COc1cc(Nc2ncc(Br)c(Oc3ccccc3C(=O)N3CCN(C)CC3)n2)cc(OC)c1OC [Compound B44]
CNC(=O)c1ccccc1Oc1nc(Nc2cc(F)c(F)c(F)c2)ncc1Br [Compound B1]
COC(=O)c1ccccc1Oc1nc(Nc2ccc3c(c2)CCO3)ncc1Br [Compound B30]
COC(=O)c1ccccc1Oc1nc(Nc2ccc(N3CCOCC3)cc2)ncc1Br [Compound B12]
COc1cc(Nc2ncc(Br)c(Oc3ccccc3C(=O)NCCN(C)C)n2)cc(OC)c1OC [Compound B7]
COc1cc(Nc2ncc(Br)c(Oc3ccccc3C(=O)N(C)CC(C)(C)O)n2)cc(OC)c1OC [Compound B49]
COC(=O)c1ccccc1Oc1nc(Nc2ccc3c(c2)COC3)ncc1Br [Compound B33]

Same assay, conditions: Table 3

IC50, < 5 nM:
CN1CCN(c2ccc(Nc3ncc(Br)c(Nc4ccccc4CO)n3)cc2)CC1 [Compound C9]
CN(C)Cc1ccc(Nc2ncc(C(F)(F)F)c(NC3CC3)n2)cc1 [Compound D4]

IC50, > 100 nM:
COc1cc(Nc2ncc(Br)c(Oc3ccc(NC(=O)CC(=O)Nc4ccc(F)cc4)cc3F)n2)cc(OC)c1OC [Compound C29, N^1-(4-((5-Bromo-2-((3,4,5-trimethoxyphenyl)amino)pyrimidin-4-yl)oxy)-3-fluorophenyl)-N^3-(4-fluorophenyl)malonamide]
COc1cc(Nc2ncc(Br)c(Nc3ccc(NC(=O)C4(C(=O)Nc5ccc(F)cc5)CC4)cc3F)n2)cc(OC)c1OC [Compound E28, N-(4-((5-Bromo-2-((3,4,5-trimethoxyphenyl)amino)pyrimidin-4-yl)amino)-3-fluorophenyl)-N-(4-fluorophenyl)cyclopropane-1,1-dicarboxamide]
COc1cc(Nc2ncc(Br)c(Nc3ccccc3CN3CCN(C)CC3)n2)cc(OC)c1OC [Compound C20]
COc1cc(Nc2ncc(Br)c(Nc3ccccc3COC(=O)N3CCOCC3)n2)cc(OC)c1OC [Compound C21]
CNC(=O)c1ccccc1Nc1nc(Nc2ccc(OC(F)(F)F)cc2)ncc1Br [Compound E19, 2-((5-Bromo-2-((4-(trifluoromethoxy)phenyl)amino)pyrimidin-4-yl)amino)-N-methylbenzamide]
CNC(=O)c1ccccc1Nc1nc(Nc2cccc(OC(F)F)c2)ncc1Br [Compound E20, 2-((5-Bromo-2-((3-(difluoromethoxy)phenyl)amino)pyrimidin-4-yl)amino)-N-methylbenzamide]
CNC(=O)c1ccccc1Nc1nc(Nc2ccc(OC(F)F)cc2)ncc1Br [Compound E18, 2-((5-Bromo-2-((4-(difluoromethoxy)phenyl)amino)pyrimidin-4-yl)amino)-N-methylbenzamide]
COc1cc(Nc2ncc(Br)c(Nc3ccccc3CN3CCN(S(C)(=O)=O)CC3)n2)cc(OC)c1OC [Compound C22]

IC50, 5 to 100 nM:
OCc1ccccc1Nc1nc(Nc2ccc(OC(F)F)cc2)ncc1Br [Compound C8]
COc1cc(Nc2ncc(Br)c(Nc3ccccc3CN(C)CC#N)n2)cc(OC)c1OC [Compound C26]
O=c1[nH]c2ccc(Nc3ncc(C(F)(F)F)c(NC4CC4)n3)cc2[nH]1 [Compound D1]
COc1cc(Nc2ncc(Br)c(Nc3ccccc3CN(C)C)n2)cc(OC)c1OC [Compound C18]
C#CCN1CCN(c2ccc(Nc3ncc(Br)c(Nc4ccccc4C(=O)NC)n3)cc2)CC1 [Compound E25, 2-((5-Bromo-2-((4-(4-(prop-2-yn-1-yl)piperazin-1-yl)phenyl)amino)pyrimidin-4-yl)amino)-N-methylbenzamide]
CC(=O)Nc1ccc(Nc2ncc(Br)c(Nc3ccccc3CO)n2)cc1 [Compound C7]
